The text below walks through data of patent US10457649B2, “Polymorphs of a mPGES-1 inhibiting triazolone compound” (Glenmark Pharmaceuticals S.A., priority 2015, dated 2019).

The nature of the data set: Stability studies of compound of formula II on storage; degradation products estimated by HPLC. Type of data set: physicochemical. The text has this: Apparatus: A High Performance Liquid Chromatograph equipped with quaternary gradient pumps, variable wavelength UV detector attached with data recorder and Integrator software or equivalent.
Column: Zorbax Eclipse XDB C-8, 150 mm×4.6 mm, 5μ or equivalent
Mobile phase: A: Buffer B: Methanol (Gradient Program)
Buffer: Water, pH adjusted to 2.2 with trifluoroacetic acid solution. Filter through 0.45μ filter paper and degas.
Diluent: Water: Methanol (20:80 v/v)
Detection wavelength: UV 270 nm
Column temperature: 25° C.
25 mg of the compound was weighed and transferred into a 50 mL volumetric flask. Methanol (5 ml) was added and it was sonicated to dissolve. The diluent was added to make up the solution to the mark of the flask.
The equal volumes of blank (diluent) and test solution were separately injected into the High Performance liquid chromatography. The responses were recorded eliminating the peaks due to blank and the chromatographic purity by area was calculated by normalization method.
The compound of formula II was stored under conditions as shown in below table and a total amount of degradation products (related substances) as well as single maximum impurity formed during storage was estimated by HPLC. The material was packed in inner clear polythene bag under nitrogen lined with black polythene bag, covered with triple laminated aluminium bag placed in HDPE drum and subjected to the conditions mentioned in the table 5.
The result of stability studies of compound of formula (II) carried out under the conditions mentioned in the table 5 is presented in tables 6 and 7.

The mark [1] stands for this setting: storage condition 1: 25 ± 2° C., 60 ± 5% RH, storage period 0 months.
Where [2] appears, read: storage condition 1: 25 ± 2° C., 60 ± 5% RH, storage period 3 months.
[3] abbreviates: storage condition 1: 25 ± 2° C., 60 ± 5% RH, storage period 6 months.
Setting [4] is: storage condition 2: 40 ± 2° C., 75 ± 5% RH, storage period 0 months.
The mark [5] stands for this setting: storage condition 2: 40 ± 2° C., 75 ± 5% RH, storage period 1 month.
[6] abbreviates: storage condition 2: 40 ± 2° C., 75 ± 5% RH, storage period 2 months.
The mark [7] stands for this setting: storage condition 2: 40 ± 2° C., 75 ± 5% RH, storage period 3 months.
Setting [8] is: storage condition 2: 40 ± 2° C., 75 ± 5% RH, storage period 6 months.

The structures appear in SMILES notation.

Take `CC(C)(C)C(=O)NCc1ccc(Cl)c(-c2nn(-c3ccc(C(F)(F)F)cc3)c(=O)[nH]2)c1` [compound of formula II, N-(4-chloro-3-(5-oxo-1-(4-(trifluoromethyl)phenyl)-4,5-dihydro-1H-1,2,4-triazol-3-yl)benzyl)pivalamide]: the Related substances by setting is: under setting [1], 0.13%; under setting [2], 0.14%; under setting [3], 0.14%; under setting [4], 0.13%; under setting [5], 0.14%; under setting [6], 0.13%. The Related substances under setting [7] is given as 0.14% and the Related substances under setting [8] is 0.13%. Also, the Single max. impurity reads like this: under setting [1], 0.13%; under setting [2], 0.14%; under setting [3], 0.14%; under setting [4], 0.13%; under setting [5], 0.14%; under setting [6], 0.13%. The Single max. impurity under setting [7] is on record as 0.14% and the Single max. impurity under setting [8] is listed as 0.13%.
